From US20250195530A1, “POLQ INHIBITORS” (ASTRAZENECA AB, priority 2022, published 2025)
Like-named read-outs stand apart in the source and are kept apart here.

How the values were obtained:
DLD-1 BRCA2−/− cells = experiment: Homologous recombination synthetic lethal inhibition of proliferation, DLD-1 BRCA2-/- (Cell Titre Glo 3D); format: cell-based; conditions: Homo sapiens, read-out: POLQ PD Prolif Lumin BRCA2 −/− mean pIC50 (converted)
Procedure, shortened: (§1)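 Cells are seeded in RPMI 1640 (phenol red free, 10% FBS, GlutaMAX) onto pre-dosed compound (10 μM to 0.51 nM, three-fold). Plates are incubated at 37 °C, and medium plus compound are refreshed on day 6. Viability is read by CellTiter-Glo 3D at day 7 (DLD-1) or day 12 (DLD-1 BRCA2−/−), and the IC50 is fitted.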

DLD-1 cells = experiment: Inhibition of proliferation, DLD-1 BRCA2 wt control (Cell Titre Glo 3D); format: cell-based; conditions: Homo sapiens
Procedure, shortened: as §1

[1] = DLD-1, 288 h, DLD-1 BRCA2−/− cells, 12 days
[2] = DLD-1, 168 h, DLD-1 BRCA2 wt cells, 7 days, read-out: POLQ PD Prolif Lumin DLD1 mean pIC50 (converted)
[3] = DLD-1, DLD-1 BRCA2 −/− cells, mean
[4] = DLD-1, DLD1 BRCA2 wt cells, mean, read-out: POLQ PD Prolif Lumin DLD1 mean PIC50 (converted)

| SMILES | IC50 (DLD-1 BRCA2−/− cells; [1]) [µM] | IC50 (DLD-1 cells; [2]) [µM] | IC50 (DLD-1 BRCA2−/− cells; [3]) [µM] | IC50 (DLD-1 cells; [4]) [µM] |
| --- | --- | --- | --- | --- |
| C[C@H]1CN(CCOc2ccc(-c3nc4c(OC5(C)CC5)ncnc4n3Cc3ccccc3)c(Cl)c2)CCN1 [Example R3, (S)-9-benzyl-8-(2-chloro-4-(2-(3-methylpiperazin-1-yl)ethoxy)phenyl)-6-(1-methylcyclopropoxy)-9H-purine] | 0.0631 | 3.16 | – | – |
| CC1(Oc2ncnc3c2nc(-c2ccc(OCCN4CC5CCC(C4)N5)cc2Cl)n3Cc2ccccc2)CC1 [Example R4, 8-(4-(2-(3,8-diazabicyclo[3.2.1]octan-3-yl)ethoxy)-2-chlorophenyl)-9-benzyl-6-(1-methylcyclopropoxy)-9H-purine] | 0.126 | 3.16 | – | – |
| CC1(Oc2ncnc3c2nc(-c2ccc(OCCN4CC5CC(C4)N5)cc2Cl)n3Cc2ccccc2)CC1 [Example R5, 3-(2-(4-(9-benzyl-6-(1-methylcyclopropoxy)-9H-purin-8-yl)-3-chlorophenoxy)ethyl)-3,6-diazabicyclo[3.1.1]heptane] | 0.1 | 3.98 | – | – |
| C[C@@H]1CN(CCOc2ccc(-c3nc4c(OC5(C)CC5)ncnc4n3Cc3ccccc3)c(Cl)c2)CCN1 [Example R6, (R)-9-benzyl-8-(2-chloro-4-(2-(3-methylpiperazin-1-yl)ethoxy)phenyl)-6-(1-methylcyclopropoxy)-9H-purine] | 0.0631 | 3.16 | – | – |
| CC1(Oc2ncnc3c2nc(-c2ccc(OCCN4CCC[C@@H](O)C4)cc2Cl)n3Cc2ccccc2)CC1 [Example R7, (R)-1-(2-(4-(9-benzyl-6-(1-methylcyclopropoxy)-9H-purin-8-yl)-3-chlorophenoxy)ethyl)piperidin-3-ol] | 0.0631 | 3.16 | – | – |
| CC1(Oc2ncnc3c2nc(-c2ccc(OCCN4CC5(CNC(=O)C5)C4)cc2Cl)n3Cc2ccccc2)CC1 [Example R8, 2-(2-(4-(9-benzyl-6-(1-methylcyclopropoxy)-9H-purin-8-yl)-3-chlorophenoxy)ethyl)-2,6-diazaspiro[3.4]octan-7-one] | 0.251 | 3.98 | – | – |
| C[C@@H]1CN(CCOc2ccc(-c3nc4c(OC5(C)CC5)ncnc4n3Cc3ccccc3)c(Cl)c2)C[C@H](C)N1 [Example R9, (cis)-9-benzyl-8-(2-chloro-4-(2-(3,5-dimethylpiperazin-1-yl)ethoxy)phenyl)-6-(1-methylcyclopropoxy)-9H-purine] | 0.0501 | 1.58 | – | – |
| C[C@H]1CNCCN1CCOc1ccc(-c2nc3c(OC4(C)CC4)ncnc3n2Cc2ccccc2)c(Cl)c1 [Example R10, (S)-9-benzyl-8-(2-chloro-4-(2-(2-methylpiperazin-1-yl)ethoxy)phenyl)-6-(1-methylcyclopropoxy)-9H-purine] | 0.126 | 2 | – | – |
| C[C@@H]1CNCCN1CCOc1ccc(-c2nc3c(OC4(C)CC4)ncnc3n2Cc2ccccc2)c(Cl)c1 [Example R11, (R)-9-benzyl-8-(2-chloro-4-(2-(2-methylpiperazin-1-yl)ethoxy)phenyl)-6-(1-methylcyclopropoxy)-9H-purine] | 0.1 | 2.51 | – | – |
| CC1(Oc2ncnc3c2nc(-c2ccc(OCCN4CCCNCC4=O)cc2Cl)n3Cc2ccccc2)CC1 [Example R12, 1-(2-(4-(9-benzyl-6-(1-methylcyclopropoxy)-9H-purin-8-yl)-3-chlorophenoxy)ethyl)-1,4-diazepan-2-one] | 0.1 | 2.51 | – | – |
| CC1(Oc2ncnc3c2nc(-c2ccc(OCCN4C5CNCC4C5)cc2Cl)n3Cc2ccccc2)CC1 [Example R15, 6-(2-(4-(9-benzyl-6-(1-methylcyclopropoxy)-9H-purin-8-yl)-3-chlorophenoxy)ethyl)-3,6-diazabicyclo[3.1.1]heptane] | 0.501 | 5.01 | – | – |
| CC1(Oc2ncnc3c2nc(-c2ccc(OCCN4CCNC5(CC5)C4)cc2Cl)n3Cc2ccccc2)CC1 [Example R17, 8-(4-(2-(4,7-diazaspiro[2.5]octan-7-yl)ethoxy)-2-chlorophenyl)-9-benzyl-6-(1-methylcyclopropoxy)-9H-purine] | 0.1 | 1 | – | – |
| CC1(Oc2ncnc3c2nc(-c2ccc(OCCN4CCN[C@@H](CO)C4)cc2Cl)n3Cc2ccccc2)CC1 [Example R18, (R)-(4-(2-(4-(9-benzyl-6-(1-methylcyclopropoxy)-9H-purin-8-yl)-3-chlorophenoxy)ethyl)piperazin-2-yl)methanol] | 0.126 | 6.31 | – | – |
| CC1(Oc2ncnc3c2nc(-c2ccc(OCCN4C[C@@H]5C[C@H]4CN5)cc2Cl)n3Cc2ccccc2)CC1 [Example R19, 8-(4-(2-((1S,4S)-2,5-diazabicyclo[2.2.1]heptan-2-yl)ethoxy)-2-chlorophenyl)-9-benzyl-6-(1-methylcyclopropoxy)-9H-purine] | 0.2 | 3.98 | – | – |
| CC1(Oc2ncnc3c2nc(-c2ccc(OCCN4C[C@H]5C[C@@H]4CN5)cc2Cl)n3Cc2ccccc2)CC1 [Example R20, 8-(4-(2-((1R,4R)-2,5-diazabicyclo[2.2.1]heptan-2-yl)ethoxy)-2-chlorophenyl)-9-benzyl-6-(1-methylcyclopropoxy)-9H-purine] | 0.2 | 2.51 | – | – |
| CC1(Oc2ncnc3c2nc(-c2ccc(OCCN4C[C@@H]5CC[C@H]4CN5)cc2Cl)n3Cc2ccccc2)CC1 [Example R21, (1S,4S)-2-(2-(4-(9-benzyl-6-(1-methylcyclopropoxy)-9H-purin-8-yl)-3-chlorophenoxy)ethyl)-2,5-diazabicyclo[2.2.2]octane] | 0.316 | 1.58 | – | – |
| CC1(Oc2ncnc3c2nc(-c2ccc(OCCN4CCNCC45CC5)cc2Cl)n3Cc2ccccc2)CC1 [Example R22, 8-(4-(2-(4,7-diazaspiro[2.5]octan-4-yl)ethoxy)-2-chlorophenyl)-9-benzyl-6-(1-methylcyclopropoxy)-9H-purine] | 0.251 | 3.16 | – | – |
| CC1(Oc2ncnc3c2nc(-c2ccc(OCCCN4CCNCC4=O)cc2Cl)n3Cc2ccccc2)CC1 [Example S1, 1-(3-(4-(9-benzyl-6-(1-methylcyclopropoxy)-9H-purin-8-yl)-3-chlorophenoxy)propyl)piperazin-2-one] | 0.0398 | > 10 | – | – |
| CC1(Oc2ncnc3c2nc(-c2ccc(OCCCN4CCNC(=O)C4)cc2Cl)n3Cc2ccccc2)CC1 [Example S2, 4-(3-(4-(9-benzyl-6-(1-methylcyclopropoxy)-9H-purin-8-yl)-3-chlorophenoxy)propyl)piperazin-2-one] | 0.0501 | 2.51 | – | – |
| CC1(Oc2ncnc3c2nc(-c2ccc(OCCN4CCNCC4)cc2Cl)n3Cc2cc(C3CC3)ccn2)CC1 [Example S3, 8-(2-chloro-4-(2-(piperazin-1-yl)ethoxy)phenyl)-9-((4-cyclopropylpyridin-2-yl)methyl)-6-(1-methylcyclopropoxy)-9H-purine] | 0.794 | > 10 | – | – |
| CCc1ccnc(Cn2c(-c3ccc(OCCN4CCNCC4)cc3Cl)nc3c(OC4(C)CC4)ncnc32)c1 [Example S4, 8-(2-chloro-4-(2-(piperazin-1-yl)ethoxy)phenyl)-9-((4-ethylpyridin-2-yl)methyl)-6-(1-methylcyclopropoxy)-9H-purine] | 0.794 | > 10 | – | – |
| Cc1cnc(Cn2c(-c3ccc(CC(N)=O)cc3Cl)nc3c(OC4(C)CC4)ncnc32)s1 [Example T4, 2-(3-chloro-4-(6-(1-methylcyclopropoxy)-9-((5-methylthiazol-2-yl)methyl)-9H-purin-8-yl)phenyl)acetamide] | – | – | 1.26 | > 10 |
| Cc1ccnc(Cn2c(-c3ccc(S(N)(=O)=O)cc3Cl)nc3c(OC4(C)CC4)ncnc32)c1 [Example T9, 3-chloro-4-(6-(1-methylcyclopropoxy)-9-((4-methylpyridin-2-yl)methyl)-9H-purin-8-yl)benzenesulfonamide] | – | – | 0.501 | > 10 |
| CC1(Oc2ncnc3c2nc(-c2cccc(C(=O)O)c2Cl)n3Cc2cccc(Cl)c2)CC1 [Example T12, 2-chloro-3-(9-(3-chlorobenzyl)-6-(1-methylcyclopropoxy)-9H-purin-8-yl)benzoic acid] | – | – | > 10 | > 10 |
| Cc1ccnc(Cn2c(-c3ccc(C(=O)O)cc3Cl)nc3c(OC4(C)CC4)ncnc32)c1 [Example T13, 3-chloro-4-(6-(1-methylcyclopropoxy)-9-((4-methylpyridin-2-yl)methyl)-9H-purin-8-yl)benzoic acid] | – | – | > 10 | > 10 |
| Cc1ccnc(Cn2c(-c3ccc(C(N)=O)cc3Cl)nc3c(OC4(C)CC4)ncnc32)c1 [Example T14, 3-chloro-4-(6-(1-methylcyclopropoxy)-9-((4-methylpyridin-2-yl)methyl)-9H-purin-8-yl)benzamide] | – | – | 0.501 | > 10 |
| CC1(Oc2ncnc3c2nc(-c2ccc(OCCO)cc2Cl)n3Cc2cc(Cl)ccn2)CC1 [Example T15, 2-(3-chloro-4-(9-((4-chloropyridin-2-yl)methyl)-6-(1-methylcyclopropoxy)-9H-purin-8-yl)phenoxy)ethan-1-ol] | – | – | 0.1 | > 10 |
| Cc1ccnc(Cn2c(-c3ccc(S(C)(=O)=O)cc3Cl)nc3c(OC4(C)CC4)ncnc32)c1 [Example T16, 8-(2-chloro-4-(methylsulfonyl)phenyl)-6-(1-methylcyclopropoxy)-9-((4-methylpyridin-2-yl)methyl)-9H-purine] | – | – | 0.794 | > 10 |
| Cc1ccnc(Cn2c(-c3ccc(NS(C)(=O)=O)cc3Cl)nc3c(OC4(C)CC4)ncnc32)c1 [Example T29, N-(3-chloro-4-(6-(1-methylcyclopropoxy)-9-((4-methylpyridin-2-yl)methyl)-9H-purin-8-yl)phenyl)methanesulfonamide] | – | – | 1.26 | > 10 |
